Literature values in patent US20060013862A1, “Onychomycosis: a new process for cure” (priority 2004, published 2006).

System: onychomycosis
[1] = itraconazole vs terbinafine-treated patients

For `CN(C/C=C/C#CC(C)(C)C)Cc1cccc2ccccc12` [terbinafine], the Mycological relapse rate [1] is listed as 23%, the clinical relapse rate [1] is listed as 21% and the “Mycological cure without second intervention treatment” value (share of treated subjects (34 of 74 terbinafine)) is listed as 46%.
